Values quoted from earlier work as cited in patent publication US20140363396A1, “ONCE DAILY TREATMENT OF HEPATITIS C WITH RIBAVIRIN AND TARIBAVIRIN” (priority 2012, published 2014).

Legend:
[1] = compared with ribavirin
[2] = in vivo
HCV NS3/4A protease = biological target: T1, HCV NS3/4A protease (Hepatitis C virus genotype 1a, UniProt P27958); details: R-diastereomer compared with telaprevir
T1 construct: NS3 consists of an N-terminal serine protease domain and a C-terminal helicase domain

[3] = in vivo; remark: listed apart in the source

T1 sequence (P27958 1027-1657 limits assumed): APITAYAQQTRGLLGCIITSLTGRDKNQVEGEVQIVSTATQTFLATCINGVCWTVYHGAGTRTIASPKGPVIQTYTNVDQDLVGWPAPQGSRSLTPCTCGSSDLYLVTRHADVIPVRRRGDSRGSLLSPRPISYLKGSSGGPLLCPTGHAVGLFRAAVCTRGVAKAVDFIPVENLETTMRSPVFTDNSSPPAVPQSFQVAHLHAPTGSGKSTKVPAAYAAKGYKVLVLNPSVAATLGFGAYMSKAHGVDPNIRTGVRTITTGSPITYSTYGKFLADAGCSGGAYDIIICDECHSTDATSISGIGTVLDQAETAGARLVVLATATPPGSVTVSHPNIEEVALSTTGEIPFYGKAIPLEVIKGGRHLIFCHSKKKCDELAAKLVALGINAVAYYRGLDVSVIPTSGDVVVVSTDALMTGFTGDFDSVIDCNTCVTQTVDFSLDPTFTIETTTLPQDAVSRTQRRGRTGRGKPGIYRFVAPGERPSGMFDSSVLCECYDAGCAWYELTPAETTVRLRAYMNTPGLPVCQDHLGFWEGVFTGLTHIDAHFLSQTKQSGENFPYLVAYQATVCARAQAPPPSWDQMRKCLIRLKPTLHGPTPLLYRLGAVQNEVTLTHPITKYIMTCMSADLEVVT
T1 sequence (P27958 1658-1711 partner limits assumed): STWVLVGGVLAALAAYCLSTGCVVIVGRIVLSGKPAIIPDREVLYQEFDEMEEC

CC(C)(C)NC(=O)N[C@H](C(=O)N1C[C@H]2[C@@H]([C@H]1C(=O)NC(CC1CCC1)C(=O)C(N)=O)C2(C)C)C(C)(C)C (stereo partly drawn) [Boceprevir, (1R,5S)—N-[3-Amino-1-(cyclobutylmethyl)-2,3-dioxopropyl]-3-[2(S)-[[[(1,1-dimethylethyl)amino]carbonyl]amino]-3,3-dimethyl-1-oxobutyl]-6,6-dimethyl-3-azabicyclo[3.1.0]hexan-2(S)-carboxamide]
solubility in methanol, ethanol and isopropanol (methanol, ethanol and isopropanol): freely soluble | solubility in water: slightly soluble

NC(=O)c1ncn([C@H]2O[C@@H](CO)[C@H](O)[C@@H]2O)n1 [Levovirin, 1-β-L-ribofuranosyl-1H-1,2,4-triazole-3-carboxamide]
toxicity [1]: less toxic

NC(=O)c1ncn([C@@H]2O[C@H](CO)[C@@H](O)[C@H]2O)n1 [Ribavirin, 1-β-D-ribofuranosyl-1H-1,2,4-triazole-3-carboxamide]
solubility in anhydrous alcohol (anhydrous alcohol): slightly soluble | solubility in water: freely soluble

CCC[C@@H](NC(=O)[C@@H]1[C@H]2CCC[C@H]2CN1C(=O)[C@@H](NC(=O)[C@@H](NC(=O)c1cnccn1)C1CCCCC1)C(C)(C)C)C(=O)C(=O)NC1CC1 [VRT-127394]
metabolite of telaprevir in plasma [2]: major metabolite in plasma | fold less potent than telaprevir (HCV NS3/4A protease): approximately 30 fold

N=C(N)c1ncn([C@@H]2O[C@H](CO)[C@@H](O)[C@H]2O)n1 [taribavirin, 1-β-D-ribofuranosyl-1H-1,2,4-triazole-3-carboxamidine]
anemia [3]: significantly less anemia
